Test results published in patent US12442035B2, “Compositions and methods for detecting antibiotic responsive mRNA expression signatures and uses thereof” (THE BROAD INSTITUTE, INC., priority 2018, dated 2025).

Tests used:
[1] = tested on: E. coli clinical isolates; assay: RNA-Seq transcriptional response to antibiotic exposure, GO term enrichment; type: cell-based, Escherichia coli; conditions: CLSI breakpoint concentration, 0, 10, 30, 60 minutes
[2] = tested on: E. coli clinical isolates; assay: Standard broth microdilution MIC; type: cell-based, Escherichia coli
[3] = tested on: A. baumannii clinical isolates; assay: Standard broth microdilution MIC; type: cell-based, Acinetobacter baumannii
[4] = tested on: K. pneumoniae clinical isolates; assay: Standard broth microdilution MIC; type: cell-based, Klebsiella pneumoniae
[5] = tested on: K. pneumoniae clinical isolates; assay: RNA-Seq transcriptional response to antibiotic exposure, GO term enrichment; type: cell-based, Klebsiella pneumoniae; conditions: CLSI breakpoint concentration, 0, 10, 30, 60 minutes
Description: (§1) Fisher's combined probability test was used to select only those genes whose expression after antibiotic treatment was statistically distinguishable from its expression at any timepoint in the untreated samples. Gene ontology (GO) terms were assigned using blast2GO (version 1.4.4), with hypergeometric testing for enrichment. For each pathogen-antibiotic pair, the fold-change threshold in DESeq2 used to test statistical significance was increased to select 60-100 antibiotic-responsive transcripts with maximal stringency, a number readily accommodated by the NanoString® assay format. […] As with responsive genes, the fold-change threshold was varied in order to select the top 10-20 control transcripts. […] See Supplemental Methods sections below for further details.
(§2) After antibiotic treatment as described in the above Materials and Methods section, cells were pelleted, resuspended in 0.5 mL Trizol reagent (ThermoFisher Scientific), transferred to 1.5 mL screw-cap tubes containing 0.25 mL of 0.1 mm diameter Zirconia/Silica beads (BioSpec Products), and lysed mechanically via bead-beating for 3-5 one-minute cycles on a Minibeadbeater-16 (BioSpec) or one 90-second cycle at 10 m/sec on a FastPrep (MP Bio). After addition of 0.1 mL chloroform, each sample tube was mixed thoroughly by inversion, incubated for 3 minutes at room temperature, and centrifuged at 12,000×g for 15 minutes at 4° C. […]

[6] = tested on: A. baumannii clinical isolates; assay: as above; type: cell-based, Acinetobacter baumannii; conditions: CLSI breakpoint concentration, 0, 10, 30, 60 minutes
Description: as §1, §2

For gentamicin, the “Gene ontology enrichment of antibiotic-responsive transcripts” value (shortened to “Gene ontology enrichment”) [1] was “induced the unfolded protein response and quinone binding”, the “gent MIC” value ([2]; E. coli strain AR0055) was 64 µg/mL and the “gent MIC” value ([2]; E. coli strain AR0061) was 32 µg/mL. For the same substance, the “gent MIC” value ([2]; E. coli strain AR0081) was 0.5 µg/mL, the “gent MIC” value ([2]; E. coli strain AR0084) was 0.5 µg/mL and the “gent MIC” value ([2]; E. coli strain AR0085) was 2 µg/mL. For the same substance, the “gent MIC” value ([2]; E. coli strain BAA2469) was 64 µg/mL, the “gent MIC” value ([2]; E. coli strain BAC0800005647) was 1 µg/mL and the “gent MIC” value ([2]; E. coli strain IDR1300027657) was 64 µg/mL. For the same substance, the “gent MIC” value ([2]; E. coli strain IDR1300034680) was 1 µg/mL, the “gent MIC” value ([2]; E. coli strain IDR1600047120) was 64 µg/mL and the “gent MIC” value ([2]; E. coli strain MGH_57) was 0.5 µg/mL. For the same substance, the “gent MIC” value ([2]; E. coli strain RB001 (deriv_S)) was 1 µg/mL, the “gent MIC” value ([2]; E. coli strain RB051 (deriv_R)) was 256 µg/mL and the “gent MIC” value ([2]; E. coli strain RB057 (deriv_R)) was 256 µg/mL. For the same substance, the “gent MIC” value ([2]; E. coli strain RB075 (deriv_S)) was 0.5 µg/mL, the “gent MIC” value ([2]; E. coli strain RB765) was 64 µg/mL and the “gent MIC” value ([2]; E. coli, printed on the continuation line of strain RB075, above RB076, strain unclear) was 1 µg/mL. The “gent MIC” value ([3]; A. baumannii strain AR0033) was 32 µg/mL, the “gent MIC” value ([3]; A. baumannii strain AR0035) was 16 µg/mL and the “gent MIC” value ([3]; A. baumannii strain AR0037) was over 32 µg/mL. The “gent MIC” value ([3]; A. baumannii strain AR0045) was over 32 µg/mL, the “gent MIC” value ([3]; A. baumannii strain AR0052) was 32 µg/mL and the “gent MIC” value ([3]; A. baumannii strain AR0056) was over 32 µg/mL. For the same substance, the “gent MIC” value ([3]; A. baumannii strain AR0063) was 4 µg/mL, the “gent MIC” value ([3]; A. baumannii strain AR0070) was over 32 µg/mL and the “gent MIC” value ([3]; A. baumannii strain AR0078) was over 32 µg/mL. For the same substance, the “gent MIC” value ([3]; A. baumannii strain AR0101) was 8 µg/mL, the “gent MIC” value ([3]; A. baumannii strain AR0102) was over 32 µg/mL and the “gent MIC” value ([3]; A. baumannii strain ATCC 17978) was at most 0.5 µg/mL. For the same substance, the “gent MIC” value ([3]; A. baumannii strain RB197 (deriv_S)) was at most 0.5 µg/mL, the “gent MIC” value ([3]; A. baumannii strain RB198) was 32 µg/mL and the “gent MIC” value ([3]; A. baumannii strain RB200 (deriv_R)) was over 32 µg/mL. The “gent MIC” value ([3]; A. baumannii strain RB201) was 1 µg/mL, the “gent MIC” value ([3]; A. baumannii strain RB202) was over 32 µg/mL and the “gent MIC” value ([3]; A. baumannii strain RB203) was 4 µg/mL. The “gent MIC” value ([3]; A. baumannii strain RB204 (deriv_R)) was over 32 µg/mL, the “gent MIC” value ([3]; A. baumannii strain RB205 (deriv_S)) was 2 µg/mL and the “gent MIC” value ([3]; A. baumannii strain RB206) was over 32 µg/mL. For the same substance, the “gent MIC” value ([4]; KpGent strain AR0042) was 32 µg/mL, the “gent MIC” value ([4]; KpGent strain AR0043) was 1 µg/mL and the “gent MIC” value ([4]; KpGent strain AR0076) was 32 µg/mL. The “gent MIC” value ([4]; KpGent strain AR0080) was 2 µg/mL, the “gent MIC” value ([4]; KpGent strain ATCC 700721) was over 32 µg/mL and the “gent MIC” value ([4]; KpGent strain BAC0800007138) was 0.5 µg/mL. For the same substance, the “gent MIC” value ([4]; KpGent strain BIDMC_2A) was 2 µg/mL, the “gent MIC” value ([4]; KpGent strain BIDMC_34) was 32 µg/mL and the “gent MIC” value ([4]; KpGent strain BIT-10) was 4 µg/mL. For the same substance, the “gent MIC” value ([4]; KpGent strain BWH_15) was 4 µg/mL, the “gent MIC” value ([4]; KpGent strain IDR1600031102-01-00) was over 32 µg/mL and the “gent MIC” value ([4]; KpGent strain IDR1600039511-01-00) was 0.5 µg/mL. The “gent MIC” value ([4]; KpGent strain MGH_30) was 1 µg/mL, the “gent MIC” value ([4]; KpGent strain MGH_35) was over 16 µg/mL and the “gent MIC” value ([4]; KpGent strain MGH_63) was over 16 µg/mL. For the same substance, the “gent MIC” value ([4]; KpGent strain RB012) was 32 µg/mL, the “gent MIC” value ([4]; KpGent strain RB040) was 0.5 µg/mL and the “gent MIC” value ([4]; KpGent strain RB042) was 2 µg/mL. For the same substance, the “gent MIC” value ([4]; KpGent strain RB121) was 1 µg/mL, the “gent MIC” value ([4]; KpGent strain RB122) was 128 µg/mL and the “gent MIC” value ([4]; KpGent strain UCI_7) was 0.5 µg/mL. For the same substance, the “gent MIC” value ([4]; KpGent strain UCI_13) was 0.5 µg/mL, the “gent MIC” value ([4]; KpGent strain UCI_37) was 16 µg/mL and the “gent MIC” value ([4]; KpGent strain UCI_63) was 4 µg/mL. For the same substance, the “gent MIC” value ([4]; KpGent strain UCI_67) was 8 µg/mL, the “Gene ontology enrichment” value [5] was “induced the unfolded protein response and quinone binding” and the “Gene ontology enrichment” value [6] was “induced the unfolded protein response and quinone binding”.
